Type in all cases: cell-based, human
For experiment [1], the system named is minor spliceosome (MiS). Description: Luciferase minor intron splicing reporter assay. The method, then: (§1) CMV-luc2CP/ARE (major intron splicing reporter), CMV-luc2CP (empty vector backbone control) and luc1CFH4 (minor splicing intron reporter) were a kind gift from Dr. Gideon Dreyfuss (University of Pennsylvania). DNA was amplified via chemical transformation of One Shot Mach1 T1 Phage-Resistant Chemically Competent E. coli cells (Invitrogen, C862003) and Sanger sequenced.
(§2) 24 hours prior analysis cells of each condition were co-transfected with each reporter plasmid and the empty vector backbone plasmid. In short 1.5 ul of P3000 reagent plus 0.5 ug of DNA and 1.5 ul Lipofectamine P300 were each diluted in 25 ul Opti-MEMH medium. Both mixes were pooled and incubated for 20 minutes before the solution was added to the cells. Luciferase expression was measured with the Dual-Glo® Luciferase Assay System (Promega, E2940): media was removed, 100 ul of PLB were added and cells were frozen for two hours at −20 C. After a one hour shaking step 100 ul of LAR substrate was added and Firefly luciferase expression was measured with a Tecan Infinite M200PRO reader. Values were calculated as x-fold of CMV-luc2CP expression and subsequently as the x-fold of the respective reference control.

For experiment [2], the system named is C4-2 cells and enzalutamide-resistant LNCaP (L-rENZ) cells. Description: Growth curves with siRNA +/- enzalutamide. As to conditions: CRPC C4-2 and L-rENZ cells; compared with EZH2 plus enzalutamide. As for the experimental part:
For growth experiments cells were treated with siRNA and two hours later with 20 uM enzalutamide. Enzalutamide was refreshed 3 days later.
Cells were seeded in a 6 well (400 000) and treated according to assay conditions over night. Cells were then seeded in Poly-L-Lysine coated 96-well plates (8000 cells/well, n=3 per condition) and WCM154 cells were seeded in a collagen-coated 96-well plates (5000 cells/well, n=3 per condition). Remaining cells were used for U6atac KD control via qRT-PCR. Cell viability was determined after 24, 48, 72, and 96 h with a Tecan Infinite M200PRO reader using the CellTiter-Glo® Luminescent Cell Viability Assay according to manufacturer's directions (Promega, G9243). Viability values were calculated as x-fold of cells transfected with siRNA for 0 h. Cell confluence (n=4 per condition) was determined using the Incucyte S3 instrument and the IncuCyte S3 2018B software (Essen Bioscience, Germany). Values were calculated as x-fold of timepoint 0 and then as fold-change in confluency as compared to siScrambled treated controls.

Experiment [3] concerns major spliceosome. Description: Luciferase major intron splicing reporter assay. As to conditions: LNCaP and C4-2 cells, long term ADT/ARSi. As for the experimental part: as §1
as §2, with “To determine the minor/major intron splicing rate cells were seeded in white 96 well plate (Huberlab, 7.655 098) (8000/well) and treated according to assay conditions. 24” for “24”
(In general: A reporter such as luciferase makes a cellular process visible.)

In the case of `C[C@]12CCC(=O)C[C@@H]1CC[C@@H]1[C@@H]2CC[C@]2(C)[C@@H](O)CC[C@@H]12` [dihydrotestosterone], in experiment [1], the “MiS activity (luciferase reporter)” value was “rescued MiS activity to levels observed in L-AR alone”. In the case of `COc1ccc(C[C@H]2NC[C@H](O)[C@H]2OC(C)=O)cc1` [anisomycin], in experiment [1] (LNCaP, C4-2, H660 cells and MSK8, MSK10, MSK16, PM154, PM1262 organoids, p38MAPK activation), the “effect on minor intron splicing (luc-splicing reporter)” value is “only observed in PCa-NE cells and organoids (H660, PM154 and MSK10)”. For `CNC(=O)c1ccc(N2C(=S)N(c3ccc(C#N)c(C(F)(F)F)c3)C(=O)C2(C)C)cc1F` [enzalutamide], in experiment [2], the “cell growth / proliferation” value was “increased CRPC growth in resistant cells”. The “major splicing (luc-reporter)” value in experiment [3] is reported as “only limited effects”. Moreover, the “MiS activity (minor splicing luc-reporter)” value in experiment [1] (LNCaP and C4-2 cells, long term ADT/ARSi) is recorded as “significant increase in MiS activity”.

These data come from patent publication US20240325429A1, “MINOR SPLICEOSOME TARGETING COMPOSITIONS AND THEIR USE IN CANCER TREATMENT” (UNIVERSITÄT BERN, priority 2021, published 2024).
